Experimental data reported in PubChem BioAssay AID256 (DTP/NCI, 2004).
Values joined by “and” are separate entries in the source; they are usually repeats but may differ in a detail not shown here. Identical values can stand only once. Toxic doses and inconclusive results are not listed. Rule for the calls: active = survival T/C of 150% or more; inactive = T/C below 125% in these data.

Tested on: CD2F1 mice, L1210 leukemia ip, survival T/C
Test: NCI In Vivo Anticancer Drug Screen. Data for tumor model L1210 Leukemia (intraperitoneal) in CD2F1 (CDF1) mice
Conditions: higher = longer survival
In short: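 Implant tumor; dose compound or vehicle; measure endpoint in both groups; report treated divided by control.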

[1] = endpoint: mean survival time, dose: 100.0 mg/kg/injection, schedule: Q04DX003 (ip), vehicle: saline with Tween-80
[2] = endpoint: mean survival time, dose: 200.0 mg/kg/injection, schedule: Q04DX003 (ip), vehicle: saline with Tween-80
[3] = endpoint: mean survival time, dose: 400.0 mg/kg/injection, schedule: Q04DX003 (ip), vehicle: saline with Tween-80
[4] = endpoint: mean survival time, dose: 100.0 mg/kg/injection, schedule: Q01DX009 (ip), vehicle: saline with Tween-80
[5] = endpoint: mean survival time, dose: 200.0 mg/kg/injection, schedule: Q01DX009 (ip), vehicle: saline with Tween-80
[6] = endpoint: mean survival time, dose: 50.0 mg/kg/injection, schedule: Q01DX009 (ip), vehicle: saline with Tween-80
[7] = endpoint: mean survival time, dose: 100.0 mg/kg/injection, schedule: Q04DX002 (ip), vehicle: saline with Tween-80
[8] = endpoint: mean survival time, dose: 200.0 mg/kg/injection, schedule: Q04DX002 (ip), vehicle: saline with Tween-80
[9] = endpoint: mean survival time, dose: 400.0 mg/kg/injection, schedule: Q04DX002 (ip), vehicle: saline with Tween-80
[10] = endpoint: mean survival time, dose: 100.0 mg/kg/injection, schedule: Q01DX001 (ip), vehicle: saline with Tween-80
[11] = endpoint: mean survival time, dose: 200.0 mg/kg/injection, schedule: Q01DX001 (ip), vehicle: saline with Tween-80
[12] = endpoint: mean survival time, dose: 400.0 mg/kg/injection, schedule: Q01DX001 (ip), vehicle: saline with Tween-80
[13] = endpoint: mean survival time, dose: 100.0 mg/kg/injection, schedule: Q04DX003 (ip), vehicle: saline
[14] = endpoint: mean survival time, dose: 200.0 mg/kg/injection, schedule: Q04DX003 (ip), vehicle: saline

Measured: T/C

CC(C)=NNc1nc2c(N)ncnc2n1C1OC(CO)C(O)C1O (centres undefined)
inactive: endpoint: mean survival time, dose: 12.5 mg/kg/injection, schedule: Q01DX005 (ip), vehicle: distilled water + Tween-80 97 % of control | endpoint: mean survival time, dose: 12.5 mg/kg/injection, schedule: Q01DX005 (ip), vehicle: water 96 % of control | endpoint: mean survival time, dose: 25.0 mg/kg/injection, schedule: Q01DX005 (ip), vehicle: distilled water + Tween-80 97 % of control | endpoint: mean survival time, dose: 25.0 mg/kg/injection, schedule: Q01DX005 (ip), vehicle: water 94 % of control | endpoint: mean survival time, dose: 50.0 mg/kg/injection, schedule: Q01DX005 (ip), vehicle: distilled water + Tween-80 97 % of control | endpoint: mean survival time, dose: 50.0 mg/kg/injection, schedule: Q01DX005 (ip), vehicle: water 99 % of control | endpoint: mean survival time, dose: 100.0 mg/kg/injection, schedule: Q01DX005 (ip), vehicle: distilled water + Tween-80 97 % of control | endpoint: mean survival time, dose: 100.0 mg/kg/injection, schedule: Q01DX005 (ip), vehicle: water 99 % of control | endpoint: mean survival time, dose: 200.0 mg/kg/injection, schedule: Q01DX005 (ip), vehicle: distilled water + Tween-80 100 % of control | endpoint: mean survival time, dose: 200.0 mg/kg/injection, schedule: Q01DX005 (ip), vehicle: water 97 % of control

O=C(O)CCc1c[nH]c2ccccc12
inactive: [1] 98 % of control | [2] 102 % of control | [3] 108 % of control

C[n+]1c(-c2cccc(OCCOCCOc3cccc(-c4c5cc(N)ccc5c5ccc(N)cc5[n+]4C)c3)c2)c2cc(N)ccc2c2ccc(N)cc21
inactive: endpoint: median survival time, dose: 1.0 mg/kg/injection, schedule: Q01DX009 (ip), vehicle: water 104 % of control | endpoint: median survival time, dose: 2.0 mg/kg/injection, schedule: Q01DX009 (ip), vehicle: saline with Tween-80 101 % of control | endpoint: median survival time, dose: 2.0 mg/kg/injection, schedule: Q01DX009 (ip), vehicle: water 114 % of control and 121 % of control | endpoint: median survival time, dose: 4.0 mg/kg/injection, schedule: Q01DX009 (ip), vehicle: saline with Tween-80 102 % of control | endpoint: median survival time, dose: 4.0 mg/kg/injection, schedule: Q01DX009 (ip), vehicle: water 114 % of control | endpoint: median survival time, dose: 8.0 mg/kg/injection, schedule: Q01DX009 (ip), vehicle: saline with Tween-80 104 % of control | endpoint: median survival time, dose: 8.0 mg/kg/injection, schedule: Q01DX009 (ip), vehicle: water 123 % of control | endpoint: median survival time, dose: 16.0 mg/kg/injection, schedule: Q01DX009 (ip), vehicle: saline with Tween-80 105 % of control | endpoint: median survival time, dose: 32.0 mg/kg/injection, schedule: Q01DX009 (ip), vehicle: saline with Tween-80 102 % of control

CCOC(=O)c1nc2cc(C)c(C)cc2[nH]c1=O
inactive: [4] 95 % of control | [5] 89 % of control | endpoint: mean survival time, dose: 400.0 mg/kg/injection, schedule: Q01DX009 (ip), vehicle: saline with Tween-80 100 % of control

COC(=O)N(C)c1nc(-c2ccccc2)nc2nonc12
inactive: endpoint: mean survival time, dose: 12.5 mg/kg/injection, schedule: Q01DX005 (ip), vehicle: saline with Tween-80 100 % of control | endpoint: mean survival time, dose: 25.0 mg/kg/injection, schedule: Q01DX005 (ip), vehicle: saline with Tween-80 96 % of control | endpoint: mean survival time, dose: 50.0 mg/kg/injection, schedule: Q01DX005 (ip), vehicle: saline with Tween-80 94 % of control | endpoint: mean survival time, dose: 100.0 mg/kg/injection, schedule: Q01DX005 (ip), vehicle: saline with Tween-80 90 % of control

[Br][Ge]([c]1ccccc1)([c]1ccccc1)[c]1ccccc1
inactive: [6] 91 % of control | [4] 91 % of control | [5] 86 % of control

Cc1nc(C)c(C#N)c(=O)[nH]1
inactive: [7] 97 % of control | [8] 97 % of control | [9] 97 % of control

N#[O+].O=[N+]([O-])O.[Co].[NH2-].[NH2-].[NH2-].[NH2-].[NH2-]
inactive: endpoint: mean survival time, dose: 6.25 mg/kg/injection, schedule: Q04DX002 (ip), vehicle: saline with Tween-80 95 % of control | endpoint: mean survival time, dose: 12.5 mg/kg/injection, schedule: Q04DX002 (ip), vehicle: saline with Tween-80 88 % of control | endpoint: mean survival time, dose: 25.0 mg/kg/injection, schedule: Q04DX002 (ip), vehicle: saline with Tween-80 98 % of control

Cc1c(F)c(F)c(C(=O)O)c(F)c1F
inactive: [4] 96 % of control | [1] 100 % of control | [5] 93 % of control | [2] 101 % of control | [3] 93 % of control

CCCC[N+](CCCC)(CCCC)CCCC.[Cl-].[Cl-].[Cl-].[Cl-].[Cl-].[Cl-].[Cl-].[Cl-].[Re].[Re]
inactive: [7] 112 % of control | [8] 112 % of control | [9] 116 % of control

COc1cc(Cc2nccc3ccccc23)cc([N+](=O)[O-])c1OC
inactive: [10] 97 % of control | [11] 92 % of control | [12] 89 % of control

C=C(Br)CNC(=O)NCC(=C)Br
inactive: [10] 91 % of control | [11] 96 % of control | [12] 101 % of control

N=C(N)c1ccc(N)cc1
inactive: [13] 103 % of control | [14] 101 % of control

O=C(Cc1ccccn1)Cc1ccccn1
inactive: [10] 106 % of control | [7] 100 % of control | [11] 96 % of control | [8] 100 % of control | [12] 106 % of control | [9] 104 % of control

O=C1N(c2ccccc2)CCS1(=O)=O
inactive: endpoint: mean survival time, dose: 9.5 mg/kg/injection, schedule: Q01DX001 (ip), vehicle: other 101 % of control | endpoint: mean survival time, dose: 19.0 mg/kg/injection, schedule: Q01DX001 (ip), vehicle: other 100 % of control | endpoint: mean survival time, dose: 38.0 mg/kg/injection, schedule: Q01DX001 (ip), vehicle: other 106 % of control

CN(C)NC(=O)CC(NCc1ccccc1)C(=O)O (centres undefined)
inactive: [1] 102 % of control | [2] 101 % of control | [3] 98 % of control

CC(C)C1OCC(C)(C)C(C)O1 (centres undefined)
inactive: endpoint: mean survival time, dose: 50.0 mg/kg/injection, schedule: Q04DX002 (ip), vehicle: saline 96 % of control | endpoint: mean survival time, dose: 100.0 mg/kg/injection, schedule: Q04DX002 (ip), vehicle: saline 96 % of control | endpoint: mean survival time, dose: 200.0 mg/kg/injection, schedule: Q04DX002 (ip), vehicle: saline 93 % of control

COC(=O)C(C)C(C)(O)C(C)(C)C (centres undefined)
inactive: endpoint: mean survival time, dose: 25.0 mg/kg/injection, schedule: Q01DX009 (ip), vehicle: saline with Tween-80 100 % of control | endpoint: mean survival time, dose: 25.0 mg/kg/injection, schedule: Q04DX003 (ip), vehicle: saline 103 % of control | [6] 101 % of control | endpoint: mean survival time, dose: 50.0 mg/kg/injection, schedule: Q04DX003 (ip), vehicle: saline 103 % of control | [4] 102 % of control | [13] 98 % of control

O=S(=O)(/C=C\c1ccccc1)Oc1ccccc1
inactive: endpoint: mean survival time, dose: 100.0 mg/kg/injection, schedule: Q01DX001 (ip), vehicle: saline 100 % of control | [13] 96 % of control | endpoint: mean survival time, dose: 200.0 mg/kg/injection, schedule: Q01DX001 (ip), vehicle: saline 100 % of control | [14] 95 % of control | endpoint: mean survival time, dose: 400.0 mg/kg/injection, schedule: Q01DX001 (ip), vehicle: saline 93 % of control | endpoint: mean survival time, dose: 400.0 mg/kg/injection, schedule: Q04DX003 (ip), vehicle: saline 90 % of control

COc1ccc(C(=O)/C=C/c2ccc(N(C)C)cc2)cc1
inactive: endpoint: mean survival time, dose: 75.0 mg/kg/injection, schedule: Q01DX001 (ip), vehicle: saline 95 % of control | endpoint: mean survival time, dose: 150.0 mg/kg/injection, schedule: Q01DX001 (ip), vehicle: saline 93 % of control

CCCCCCCCC(C(=O)c1ccccc1)=C(C(F)(F)F)C(F)(F)F
inactive: [4] 91 % of control
